The target in assay [1] is T1, MAP kinase-activated protein kinase 5 (Homo sapiens) (UniProt Q8IW41).
T1 sequence (whole entry): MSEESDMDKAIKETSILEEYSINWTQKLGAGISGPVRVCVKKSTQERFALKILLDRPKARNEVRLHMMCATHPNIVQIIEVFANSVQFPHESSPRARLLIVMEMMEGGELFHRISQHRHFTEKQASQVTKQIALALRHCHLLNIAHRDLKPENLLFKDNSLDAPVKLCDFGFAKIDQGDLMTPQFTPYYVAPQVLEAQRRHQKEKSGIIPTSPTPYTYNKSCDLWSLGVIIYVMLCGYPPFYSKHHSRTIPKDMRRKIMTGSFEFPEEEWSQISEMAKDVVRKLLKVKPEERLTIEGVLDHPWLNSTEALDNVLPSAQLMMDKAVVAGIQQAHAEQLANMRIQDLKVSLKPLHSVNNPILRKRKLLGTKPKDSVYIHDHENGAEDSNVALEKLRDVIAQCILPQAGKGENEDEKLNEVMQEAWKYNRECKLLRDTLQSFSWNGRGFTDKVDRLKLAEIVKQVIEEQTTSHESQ
Put plainly: Residual activity of MAPKAPK5 at 0.1 uM by microplate scintillation counting.

For assay [2], the target named is T2, Tyrosine-protein kinase ITK/TSK (Homo sapiens) (UniProt Q08881).
T2 sequence (whole entry): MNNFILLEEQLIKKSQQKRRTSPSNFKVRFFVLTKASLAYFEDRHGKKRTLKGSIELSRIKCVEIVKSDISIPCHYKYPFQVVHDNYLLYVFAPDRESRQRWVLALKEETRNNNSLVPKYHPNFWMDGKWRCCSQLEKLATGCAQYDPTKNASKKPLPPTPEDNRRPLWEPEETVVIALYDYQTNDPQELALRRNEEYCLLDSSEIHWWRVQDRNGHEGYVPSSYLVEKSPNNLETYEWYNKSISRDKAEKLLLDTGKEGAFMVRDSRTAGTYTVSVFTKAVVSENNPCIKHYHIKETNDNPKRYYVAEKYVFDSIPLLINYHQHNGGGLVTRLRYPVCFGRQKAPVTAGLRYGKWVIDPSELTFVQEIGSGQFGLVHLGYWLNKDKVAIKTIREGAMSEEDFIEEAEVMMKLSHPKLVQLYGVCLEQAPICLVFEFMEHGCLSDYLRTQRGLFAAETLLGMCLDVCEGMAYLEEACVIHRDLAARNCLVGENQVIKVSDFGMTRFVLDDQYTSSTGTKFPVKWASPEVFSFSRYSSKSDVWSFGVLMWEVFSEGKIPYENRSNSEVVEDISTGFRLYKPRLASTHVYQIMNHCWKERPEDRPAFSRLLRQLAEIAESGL
The assay is described as follows: Residual activity of ITK at 1 uM by microplate scintillation counting.

The target in assay [3] is T3, Tyrosine-protein kinase JAK3 (Homo sapiens) (UniProt P52333).
T3 sequence (whole entry): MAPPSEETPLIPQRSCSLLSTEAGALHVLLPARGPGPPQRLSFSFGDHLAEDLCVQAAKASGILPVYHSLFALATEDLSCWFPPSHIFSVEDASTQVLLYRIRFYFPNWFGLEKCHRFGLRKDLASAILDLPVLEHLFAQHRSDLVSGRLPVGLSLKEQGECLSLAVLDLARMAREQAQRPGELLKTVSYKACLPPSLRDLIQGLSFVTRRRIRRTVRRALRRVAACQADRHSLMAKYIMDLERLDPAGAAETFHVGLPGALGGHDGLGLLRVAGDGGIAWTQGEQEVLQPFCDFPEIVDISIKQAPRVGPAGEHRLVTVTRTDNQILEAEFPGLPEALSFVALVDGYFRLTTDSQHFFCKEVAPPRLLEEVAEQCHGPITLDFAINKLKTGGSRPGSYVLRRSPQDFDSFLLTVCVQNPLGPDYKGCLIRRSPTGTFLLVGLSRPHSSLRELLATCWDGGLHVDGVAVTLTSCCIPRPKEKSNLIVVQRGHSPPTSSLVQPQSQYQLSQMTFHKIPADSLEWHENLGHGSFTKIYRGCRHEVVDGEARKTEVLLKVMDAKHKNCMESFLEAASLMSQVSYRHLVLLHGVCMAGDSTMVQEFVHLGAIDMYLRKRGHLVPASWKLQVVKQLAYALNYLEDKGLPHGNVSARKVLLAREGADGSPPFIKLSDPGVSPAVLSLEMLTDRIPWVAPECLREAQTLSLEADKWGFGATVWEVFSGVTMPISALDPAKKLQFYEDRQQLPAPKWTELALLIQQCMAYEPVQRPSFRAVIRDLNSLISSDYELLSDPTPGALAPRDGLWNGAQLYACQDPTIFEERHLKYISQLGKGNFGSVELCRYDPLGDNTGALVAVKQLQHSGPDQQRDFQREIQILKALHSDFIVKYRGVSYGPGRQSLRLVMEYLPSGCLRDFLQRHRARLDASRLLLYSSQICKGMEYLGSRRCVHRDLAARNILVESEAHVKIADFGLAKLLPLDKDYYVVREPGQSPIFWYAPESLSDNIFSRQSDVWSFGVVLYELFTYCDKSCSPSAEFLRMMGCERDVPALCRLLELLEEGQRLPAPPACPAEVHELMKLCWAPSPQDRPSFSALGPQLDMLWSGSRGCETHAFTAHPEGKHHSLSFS
The assay is described as follows: Residual activity of JAK3 at 0.1 uM by microplate scintillation counting.

The target in assay [4] is RAC-gamma serine/threonine-protein kinase (Homo sapiens) (UniProt Q9Y243). The assay is described as follows: Residual activity of AKT3 at 0.1 uM by microplate scintillation counting.
Assay [5] has as its target CDK1/Cyclin E (Homo sapiens) (UniProt P06493+P24864). Put plainly: Residual activity of CDK1/Cyclin E at 10 uM by microplate scintillation counting. In kind it is protein-complex assay.
In assay [6] the target is Vascular endothelial growth factor receptor 3 (Homo sapiens, UniProt P35916). Put plainly: Residual activity of VEGFR3 at 10 uM by microplate scintillation counting.
A short description of assay [7]: Residual activity of S6K at 1 uM by microplate scintillation counting.
The target of assay [8] is Cyclin-dependent kinase 4/cyclin D1 (Homo sapiens) (UniProt P11802+P24385). The assay is described as follows: Residual activity of CDK4/Cyclin D1 at 10 uM by microplate scintillation counting. In kind it is protein-complex assay.

Residual activity data for three molecules are collected here from ChEMBL document CHEMBL1152560, “Substituted 2-arylbenzothiazoles as kinase inhibitors: hit-to-lead optimization” (Bioorg Med Chem, 2009).

Sequence of CDK1/Cyclin E (Homo sapiens) (P06493 whole entry, looked up): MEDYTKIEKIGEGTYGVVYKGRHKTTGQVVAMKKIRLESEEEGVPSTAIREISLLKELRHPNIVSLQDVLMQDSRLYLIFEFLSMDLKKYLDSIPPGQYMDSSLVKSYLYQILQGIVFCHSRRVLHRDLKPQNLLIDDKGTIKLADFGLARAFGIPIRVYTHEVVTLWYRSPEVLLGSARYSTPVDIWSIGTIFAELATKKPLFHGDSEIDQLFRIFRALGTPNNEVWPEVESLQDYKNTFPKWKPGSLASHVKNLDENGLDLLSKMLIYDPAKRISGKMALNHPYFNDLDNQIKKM
Sequence of CDK1/Cyclin E (Homo sapiens) (P24864 whole entry, looked up): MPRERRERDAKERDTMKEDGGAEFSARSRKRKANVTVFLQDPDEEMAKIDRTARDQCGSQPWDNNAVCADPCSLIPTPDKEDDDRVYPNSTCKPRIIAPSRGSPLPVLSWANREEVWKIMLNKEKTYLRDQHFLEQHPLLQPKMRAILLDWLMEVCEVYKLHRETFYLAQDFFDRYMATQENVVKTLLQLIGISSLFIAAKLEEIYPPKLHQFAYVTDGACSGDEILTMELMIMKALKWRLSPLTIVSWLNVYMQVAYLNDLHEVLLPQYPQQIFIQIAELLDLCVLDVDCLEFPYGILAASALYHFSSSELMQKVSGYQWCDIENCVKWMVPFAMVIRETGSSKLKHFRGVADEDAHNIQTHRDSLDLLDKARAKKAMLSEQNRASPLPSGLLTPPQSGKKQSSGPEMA
Sequence of RAC-gamma serine/threonine-protein kinase (Homo sapiens) (Q9Y243 whole entry): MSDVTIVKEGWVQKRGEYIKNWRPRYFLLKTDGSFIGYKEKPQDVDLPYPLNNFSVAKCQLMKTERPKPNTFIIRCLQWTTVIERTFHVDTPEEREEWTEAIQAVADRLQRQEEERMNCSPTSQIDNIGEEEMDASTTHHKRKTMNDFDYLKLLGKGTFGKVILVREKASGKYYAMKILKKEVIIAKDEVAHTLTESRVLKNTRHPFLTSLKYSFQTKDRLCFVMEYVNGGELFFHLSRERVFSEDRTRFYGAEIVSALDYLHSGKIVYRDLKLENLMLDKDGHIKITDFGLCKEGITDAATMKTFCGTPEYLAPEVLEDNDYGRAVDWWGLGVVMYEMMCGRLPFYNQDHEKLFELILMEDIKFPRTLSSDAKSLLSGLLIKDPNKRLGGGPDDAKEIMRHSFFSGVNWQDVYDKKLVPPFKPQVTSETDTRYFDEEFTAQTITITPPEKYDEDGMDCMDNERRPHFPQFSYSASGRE
Sequence of Vascular endothelial growth factor receptor 3 (P35916 whole entry): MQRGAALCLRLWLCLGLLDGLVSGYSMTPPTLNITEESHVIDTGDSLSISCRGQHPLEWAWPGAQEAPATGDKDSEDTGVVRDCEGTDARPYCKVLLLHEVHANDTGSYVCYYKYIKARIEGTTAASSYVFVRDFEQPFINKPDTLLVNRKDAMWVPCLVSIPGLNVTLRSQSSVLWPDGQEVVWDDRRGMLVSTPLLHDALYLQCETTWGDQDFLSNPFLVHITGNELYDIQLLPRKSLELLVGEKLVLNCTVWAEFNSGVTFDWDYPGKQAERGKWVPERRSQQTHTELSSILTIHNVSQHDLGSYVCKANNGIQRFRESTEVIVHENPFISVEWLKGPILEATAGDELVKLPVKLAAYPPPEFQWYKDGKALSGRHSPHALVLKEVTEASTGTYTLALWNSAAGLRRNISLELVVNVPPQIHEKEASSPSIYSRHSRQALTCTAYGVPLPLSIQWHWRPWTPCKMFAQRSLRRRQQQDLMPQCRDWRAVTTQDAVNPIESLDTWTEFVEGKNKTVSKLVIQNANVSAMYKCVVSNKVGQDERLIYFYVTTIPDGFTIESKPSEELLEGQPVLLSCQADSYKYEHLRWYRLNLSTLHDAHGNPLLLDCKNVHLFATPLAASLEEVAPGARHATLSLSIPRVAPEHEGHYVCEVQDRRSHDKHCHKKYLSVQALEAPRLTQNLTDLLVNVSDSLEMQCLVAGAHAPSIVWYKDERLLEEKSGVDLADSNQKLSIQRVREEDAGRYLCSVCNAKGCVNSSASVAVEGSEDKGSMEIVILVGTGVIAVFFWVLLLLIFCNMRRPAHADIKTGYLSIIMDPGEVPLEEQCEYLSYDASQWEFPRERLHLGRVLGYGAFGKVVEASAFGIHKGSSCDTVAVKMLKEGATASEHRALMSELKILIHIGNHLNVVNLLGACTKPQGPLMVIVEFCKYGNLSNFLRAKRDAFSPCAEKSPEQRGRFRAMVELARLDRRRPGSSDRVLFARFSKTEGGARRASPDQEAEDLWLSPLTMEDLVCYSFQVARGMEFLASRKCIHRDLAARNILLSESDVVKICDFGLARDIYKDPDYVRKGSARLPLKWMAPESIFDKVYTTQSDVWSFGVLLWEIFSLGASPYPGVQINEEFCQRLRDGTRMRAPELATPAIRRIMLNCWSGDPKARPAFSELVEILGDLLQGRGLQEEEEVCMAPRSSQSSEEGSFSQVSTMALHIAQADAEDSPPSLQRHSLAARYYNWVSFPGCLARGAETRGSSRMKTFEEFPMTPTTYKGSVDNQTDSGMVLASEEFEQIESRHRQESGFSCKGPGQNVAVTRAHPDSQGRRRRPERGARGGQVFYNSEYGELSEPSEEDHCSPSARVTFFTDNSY

Take `COc1cc2c(Oc3ccc(-c4nc5ccccc5s4)cc3F)ncnc2cc1OCCCN1CCN(C)CC1`: the residual activity in assay [1] was determined as 95%; in assay [2], 97%; in assay [3] it was 90%; in assay [4], 107%; in assay [5], 107%; in assay [6], 4%. The residual activity in assay [7] was found to be 95%; in assay [8], 99%.
Consider `COc1cc2c(Oc3ccc(-c4nc5ccccc5s4)cc3)ncnc2cc1OCCCN1CCN(C)CC1`, for which the residual activity was 124% in assay [1]; 91% in assay [2]; 95% in assay [3]; 96% in assay [4]; 108% in assay [5]; 4% in assay [6]. In addition, the residual activity came to 69% in assay [7] and 97% in assay [8].
`COc1cc2c(Oc3ccc(-c4nc5ccccc5s4)cc3)ncnc2cc1OCCCN1CCCC1`: the residual activity in assay [1] amounted to 97%; in assay [2] it was 95%; in assay [3], 98%; in assay [4] it was 100%; in assay [5], 93%; in assay [6], 6%. Also, the residual activity in assay [7] turned out to be 75%; in assay [8] it was 101%.
